Laboratory results: ChEMBL document CHEMBL2040735, “Synthesis, benzodiazepine receptor binding and molecular modelling of isochromeno[4,3-c]pyrazol-5(1H)-one derivatives” (Eur J Med Chem, 2012)

Key:
[1] = species on record: Bos taurus; experiment: Displacement of [3H]flunitrazepam from benzodiazepine receptor in bovine brain membrane at 10 uM by liquid scintillation counting; format: cell membranes
[2] = species on record: Bos taurus; conditions: Brain, Membrane, 1 uM
Description: Displacement of [3H]flunitrazepam from benzodiazepine receptor in bovine brain membrane at 1 uM by liquid scintillation counting

Row | SMILES | inhibition [1] [%] | inhibition [2] [%]
1 | Cc1ccc(-n2nc(C)c3c(=O)oc4ccccc4c32)cc1 | 66 | 
2 | CN1C(=O)CN=C(c2ccccc2)c2cc(Cl)ccc21 |  | 98
3 | Cc1nn(-c2cccc(Cl)c2)c2c1c(=O)oc1ccccc12 | 86 | 
4 | Cc1ccc2c(c1)c(=O)oc1c(C)nn(-c3ccccc3)c12 | 6 | 
5 | Cc1nn(-c2ccccc2)c2c1oc(=O)c1cc(Cl)ccc12 | 0 | 
6 | Cc1cccc(-n2nc(C)c3oc(=O)c4ccccc4c32)c1 | 40 | 
7 | O=c1oc2c(-c3ccccc3)nn(-c3ccccc3)c2c2ccccc12 | 5 | 
8 | Cc1nn(-c2ccccc2)c2c1oc(=O)c1ccc(Cl)cc12 | 35 | 
9 | Cc1ccc(-n2nc(C)c3oc(=O)c4ccccc4c32)cc1 | 13 | 
10 | O=c1oc2ccccc2c2c1c(-c1ccccc1)nn2-c1ccccc1 | 10 | 
11 | Cc1nn(-c2ccccc2)c2c1oc(=O)c1ccccc12 | 20 | 
12 | O=c1oc2cnn(-c3ccccc3)c2c2ccccc12 | 54 | 
13 | Cc1nn(-c2cccc(Cl)c2)c2c1oc(=O)c1ccccc12 | 28 | 
14 | Cc1nn(-c2ccccc2)c2c1c(=O)oc1ccccc12 | 76 | 
15 | Cc1cccc(-n2nc(C)c3c(=O)oc4ccccc4c32)c1 | 78 | 
